Reference: patent publication US9133207B2, “Tetrandrine derivatives with substituted 5-carbon, preparation method and use thereof” (Hangzhou Bensheng Pharmaceutical Co., Ltd., priority 2011, dated 2015)
Converted amounts (≈) assume the structure as drawn.

What was measured:
[1] = tested on: H9 (acute lymphoblastic leukemia, ALL); assay: Leukemia cell growth inhibition, MTT, 72 h (Example 5); assay type: cell-based, human; conditions: Homo sapiens; 72 h, MTT
From the text: (§1) Leukemia cell lines: leukemia cell lines: K562/adr (drug-resistant, chronic myeloid leukemia, CML), NB4 (acute promyelocytic leukemia, AML), Kasumi-1 (acute myeloid leukemia M2 type, AML-M2), Jurkat (acute lymphoblastic leukemia, ALL), all of which are donated by Cancer Research Institute of Zhejiang University, China; and H9 (acute lymphoblastic leukemia, ALL), which is purchased from China Center for Type Culture Collection.
(§2) Reagents: The standard sample of tetrandrine (TTD) is purchased from Ci Yuan Biotechnology Co., Ltd., Shaanxi, China; and the 5-substituted tetrandrine derivatives of the present invention.
(§3) Obtaining 6000 well-growing leukemia cells and inoculating them into wells of a 96-well cell culture plate. The culture medium is a 1640 cell culture medium containing 10% fetal bovine serum. After adding the tetrandrine derivatives of different concentrations and mixing uniformly, placing the plate in a carbon dioxide cell incubator (5% CO2) at 37° C. and incubating for 72 hours. Then the viable cell concentration is determined by the MTT method.

[2] = tested on: Jurkat (acute lymphoblastic leukemia, ALL); assay: as above; assay type: cell-based, human; conditions: Homo sapiens, Jurkat; 72 h, MTT
From the text: as §1, §2, §3

[3] = tested on: K562/adr (drug-resistant, chronic myeloid leukemia, CML); assay: as above; assay type: cell-based, human; conditions: Homo sapiens, K562/Adr; 72 h, MTT
From the text: as §1, §2, §3

[4] = tested on: Kasumi-1 (acute myeloid leukemia M2 type, AML-M2); assay: as above; assay type: cell-based, human; conditions: Homo sapiens, Kasumi 1
From the text: as §1, §2, §3

[5] = tested on: NB4 (acute promyelocytic leukemia, AML); assay: as above; assay type: cell-based, human; conditions: Homo sapiens; 72 h, MTT
From the text: as §1, §2, §3

[6] = tested on: RPMI8226 (multiple myeloma); assay: Multiple myeloma cell growth inhibition, MTT, 72 h (Example 6); assay type: cell-based, human; conditions: Homo sapiens, RPMI-8226; 72 h, MTT, RPMI8226
Description: Multiple myeloma and lymphoma cell lines: RPMI8226 (multiple myeloma), purchased from Fuxiang Bio-tech Co. Ltd., Shanghai, China.
(§4) Reagents: the same as in Example 5.
as §3, with “incubated” for “incubating”

[7] = tested on: CaES-17 (esophageal cancer cell); assay: Solid tumor cell growth inhibition, MTT, 72 h (Example 7); assay type: cell-based, human; conditions: Homo sapiens, CaEs17; 72 h, MTT, CAES-17
Description: (§5) Human solid tumor cell lines: Hep-2 (laryngeal carcinoma), A549 (human lung cancer), CaES-17 (esophageal cancer cell), PC-3 (prostate cancer), CNE (nasopharyngeal carcinoma cell) and SK-OV-3 (ovarian cancer cell), all of which are purchased from China Center For Type Culture Collection; RKO (human colon adenocarcinoma cell), MGC 803 (human gastric cancer cell), MG63 (osteosarcoma), and U87 MG (malignant glioma cell), all of which are purchased from Fuxiang Bio-tech Co. Ltd., Shanghai, China; PANC-1 (pancreatic cancer), Huh? (human liver cancer cell), Becap37 (human breast cancer cell), and Hela (human cervical cancer cell), all of which are donated by Cancer Research Institute of Zhejiang University, China.
as §4
(§6) Obtaining 4000 well-growing human solid tumor cells and inoculating them into wells of a 96-well cell culture plate. The culture medium is DMEM High Glucose cell culture medium containing 10% fetal bovine serum. The plate is placed in a carbon dioxide cell incubator (5% CO2) at 37° C. and incubated for 24 hours. After been added with tetrandrine derivatives of different concentration and mixing uniformly, the plate is placed in a carbon dioxide cell incubator (5% CO2) at 37° C. and incubated for 72 hours. Then the viable cell concentration is determined by the MTT method and the cell viability (%) after drug treatment is calculated. In this experiment, the cell viability of control group (not treated with any compound) is set as 100%.

[8] = tested on: MG63 (osteosarcoma); assay: as above; assay type: cell-based, human; conditions: Homo sapiens; 72 h, MTT, MG-63
Description: as §5, §4, §6

[9] = tested on: PANC-1 (pancreatic cancer); assay: as above; assay type: cell-based, human; conditions: Homo sapiens; 72 h, MTT, PANC-1
Description: as §5, §4, §6

[10] = tested on: PC-3 (prostate cancer); assay: as above; assay type: cell-based, human; conditions: Homo sapiens; 72 h, MTT, PC-3
Description: as §5, §4, §6

[11] = tested on: A549 (human lung cancer); assay: as above; assay type: cell-based; conditions: Homo sapiens; 72 h, MTT, A549
Description: as §5, §4, §6

[12] = tested on: Becap37 (human breast cancer cell); assay: as above; assay type: cell-based; conditions: Homo sapiens; 72 h, MTT, Becap-37
Description: as §5, §4, §6

[13] = tested on: Huh7 (human liver cancer cell); assay: as above; assay type: cell-based; conditions: Homo sapiens; 72 h, MTT, Huh-7
Description: as §5, §4, §6

[14] = tested on: MGC 803 (human gastric cancer cell); assay: as above; assay type: cell-based; conditions: Homo sapiens
Description: as §5, §4, §6

[15] = tested on: RKO (human colon adenocarcinoma cell); assay: as above; assay type: cell-based; conditions: Homo sapiens; 72 h, MTT, RKO
Description: as §5, §4, §6

Row | SMILES | IC50 [1] [µg/mL] | IC90 [1] [µg/mL] | IC50 [2] [µg/mL] | IC90 [2] [µg/mL] | IC50 [3] [µg/mL] | IC90 [3] [µg/mL] | IC50 [4] [µg/mL] | IC90 [4] [µg/mL] | IC50 [5] [µg/mL] | IC90 [5] [µg/mL] | IC50 [6] [µg/mL] | IC90 [6] [µg/mL] | IC50 [7] [µg/mL] | IC90 [7] [µg/mL] | IC50 [8] [µg/mL] | IC90 [8] [µg/mL] | IC50 [9] [µg/mL] | IC90 [9] [µg/mL] | IC50 [10] [µg/mL] | IC90 [10] [µg/mL] | also measured
1 | COc1ccc2cc1Oc1ccc(cc1)C[C@H]1c3cc(c(OC)cc3CCN1C)Oc1c(OC)c(OC)c(CNC(C)C)c3c1[C@H](C2)N(C)CC3 [BS-TE-311] | 2.29 (≈ 3.3 µM) | 3.99 (≈ 5.75 µM) | 3.15 (≈ 4.54 µM) | 9.19 (≈ 13.2 µM) | 1.97 (≈ 2.84 µM) | 12 (≈ 17.3 µM) | 1.33 (≈ 1.92 µM) | 5.63 (≈ 8.11 µM) | 0.83 (≈ 1.2 µM) | 4 (≈ 5.76 µM) | 0.18 (≈ 0.259 µM) | 1.74 (≈ 2.51 µM) | 4.05 (≈ 5.84 µM) | 25.6 (≈ 36.9 µM) | 1.89 (≈ 2.72 µM) | 4 (≈ 5.76 µM) | 6.31 (≈ 9.09 µM) | 13.2 (≈ 19 µM) | 6.04 (≈ 8.7 µM) | 8 (≈ 11.5 µM) | IC50 [11]: 1.89 µg/mL (≈ 2.72 µM); IC90 [11]: 9.07 µg/mL (≈ 13.1 µM); IC50 [12]: 2.5 µg/mL (≈ 3.6 µM); IC90 [12]: 7.86 µg/mL (≈ 11.3 µM); IC50 [13]: 3.5 µg/mL (≈ 5.04 µM); IC90 [13]: 4.9 µg/mL (≈ 7.06 µM); IC50 [14]: 3.17 µg/mL (≈ 4.57 µM); IC90 [14]: 11.8 µg/mL (≈ 17 µM); IC50 [15]: 1.96 µg/mL (≈ 2.82 µM); IC90 [15]: 4.25 µg/mL (≈ 6.12 µM)
2 | COCCCNCc1c2c3c(c(OC)c1OC)Oc1cc4c(cc1OC)CCN(C)[C@H]4Cc1ccc(cc1)Oc1cc(ccc1OC)C[C@@H]3N(C)CC2 [BS-TE-340] | 1.93 (≈ 2.67 µM) | 3.23 (≈ 4.46 µM) | 2.24 (≈ 3.09 µM) | 4 (≈ 5.53 µM) | 0.98 (≈ 1.35 µM) | 2.39 (≈ 3.3 µM) | 0.66 (≈ 0.912 µM) | 1.8 (≈ 2.49 µM) | 1.07 (≈ 1.48 µM) | 2.87 (≈ 3.96 µM) | 0.18 (≈ 0.249 µM) | 0.999 (≈ 1.38 µM) | 1.83 (≈ 2.53 µM) | 7.21 (≈ 9.96 µM) | 0.6 (≈ 0.829 µM) | 1.19 (≈ 1.64 µM) | 3.61 (≈ 4.99 µM) | 5.72 (≈ 7.9 µM) | 3.43 (≈ 4.74 µM) | 4 (≈ 5.53 µM) | IC50 [11]: 2.36 µg/mL (≈ 3.26 µM); IC90 [11]: 6.66 µg/mL (≈ 9.2 µM); IC50 [12]: 1.99 µg/mL (≈ 2.75 µM); IC90 [12]: 4.12 µg/mL (≈ 5.69 µM); IC50 [13]: 2.52 µg/mL (≈ 3.48 µM); IC90 [13]: 4.85 µg/mL (≈ 6.7 µM); IC50 [14]: 2.34 µg/mL (≈ 3.23 µM); IC90 [14]: 5.54 µg/mL (≈ 7.65 µM); IC50 [15]: 1.29 µg/mL (≈ 1.78 µM); IC90 [15]: 2.45 µg/mL (≈ 3.38 µM)
3 | COc1ccc2cc1Oc1ccc(cc1)C[C@H]1c3cc(c(OC)cc3CCN1C)Oc1c(OC)c(OC)c(CNCc3ccccn3)c3c1[C@H](C2)N(C)CC3 [BS-TE-352] | 1.31 (≈ 1.76 µM) | 4.5 (≈ 6.06 µM) | 1.38 (≈ 1.86 µM) | 4.74 (≈ 6.38 µM) | 0.63 (≈ 0.848 µM) | 3 (≈ 4.04 µM) | 1.1 (≈ 1.48 µM) | 4.84 (≈ 6.51 µM) | 1.05 (≈ 1.41 µM) | 3.88 (≈ 5.22 µM) | 0.09 (≈ 0.121 µM) | 0.76 (≈ 1.02 µM) | 3.06 (≈ 4.12 µM) | 9.92 (≈ 13.4 µM) | 1.26 (≈ 1.7 µM) | 4.35 (≈ 5.86 µM) | 5.79 (≈ 7.79 µM) | 9 (≈ 12.1 µM) | 4.53 (≈ 6.1 µM) | 7.51 (≈ 10.1 µM) | IC50 [11]: 1.35 µg/mL (≈ 1.82 µM); IC90 [11]: 4.58 µg/mL (≈ 6.16 µM); IC50 [12]: 1.4 µg/mL (≈ 1.88 µM); IC90 [12]: 4.85 µg/mL (≈ 6.53 µM); IC50 [13]: 3.61 µg/mL (≈ 4.86 µM); IC90 [13]: 4.98 µg/mL (≈ 6.7 µM); IC50 [14]: 4.38 µg/mL (≈ 5.9 µM); IC90 [14]: > 10 µg/mL
